Source: paper PMC10663516 (Scientific Reports, 2023)
pIC50: −log10 of the molar value.

Experiments:
primary CLL blasts = assay: Growth inhibition of primary CLL blasts (Mosaic Spot Assay); format: cell-based; details: Homo sapiens, 96 h, 4 days
Source text: A cytotoxic dose of cisplatin acted as a positive control, with no drug treatment as a negative control.

LY2264/ABC = assay: DLBCL PDX model; format: in vivo, mouse; details: LY2264/ABC MyD88, 25 days, QD PO; TL-895 and ibrutinib 25 mg/kg, acalabrutinib 30 mg/kg
Method: (§1) All three compounds were formulated in a solution of 20% kleptose (hydroxypropyl β-cyclodextrin) in 50 mM citrate and administered QD PO during the treatment periods given for each model.
(§2) For mean values > 0: %ΔT/ΔC=endtumorvolumetreatment-starttumorvolumetreatment/endtumorvolumecontrol-starttumorvolumecontrol×100
(§3) For mean values ≤ 0 (i.e. regression): %ΔT/ΔC=endtumorvolumetreatment-starttumorvolumetreatment/starttumorvolumecontrol×100
(§4) The research use of patient material in PDX models at Crown Bioscience, XenoSTART and EPO-GmbH was approved by the local Institutional Ethical Review Boards and the patients provided written informed consent. Molecular analysis was performed on samples from each model using the EdgeSeq DLBCL Cell of Origin Assay (HTG Molecular Diagnostics, Tucson, AZ, USA) to confirm ABC-GCB DLBCL subtype.
(§5) Stock mice inoculated with human DLBCL cancer tissues were euthanized by progressive hypoxemia with CO2 and tumors were harvested. Tumor fragments were used at three different contract research organizations for xenotransplantation into different mouse strains for the following models: (1) 6-week-old female nude (NMRI:nu/nu) or CB17-SCID mice (Javier Labs, France): Ly12638, Ly11212, and Ly13005 (Experimental Pharmacology and Oncology Berlin-Buch GmbH [EPO-GmbH], Germany); (2) 6–8-week-old female BALB/c nude or NOD SCID mice (Beijing HFK Bioscience Co., Ltd. Beijing, China): LY0257, LY2214, LY3604, LY2298, LY2264, LY2318, and LY2345 (Crown Bioscience Inc, Taicang, China); and (3) 6–12-week-old female CB-17 SCID mice (CB17/Icr-Prkdc^scid/IcrIcoCrl Charles River Laboratories, Wilmington, MA, USA): ST118B, ST949B, ST359, ST949, ST2761B, ST2963, ST1361, ST2078, ST1735B, ST2902, and ST3497 (XenoSTART, San Antonio, TX, USA).
(§6) When the average tumor volume was within a pre-determined range (100–300 mm^3), mice were assigned to treatment groups to balance the mean starting tumor volumes (n = 5 for all models except LY13005, which was n = 3). […] Tumor volumes were recorded 2–3 times per week. Mean %∆T/∆C was calculated at the end of treatment as described above for MCL models.
(§7) Tumor volume was used as the measure of efficacy for statistical analyses of in vivo xenograft studies. Tumor volume data from individual studies were log-transformed and statistically analyzed using repeated measures analysis of covariance (RM-ANCOVA) to determine significant treatment effects, followed by post hoc Tukey’s test for multiple pairwise comparisons (all α = 0.05) using R software. Day 0 data were used only as covariates in the analyses because tumor measurements on that day were recorded before the first treatments were administered.

ST949B/ABC = assay: DLBCL PDX model; format: in vivo, mouse; details: 9 days, QD PO, TL-895 and ibrutinib 25 mg/kg, acalabrutinib 30 mg/kg
Method: as §1, §2, §3, §4, §5, §6, §7

DLBCL PDX models = assay: 21 DLBCL PDX models, overall tumor response; format: in vivo, mouse
Method: as §4
Stock mice inoculated with human DLBCL cancer tissues were euthanized by progressive hypoxemia with CO2 and tumors were harvested. […]
as §6
as §7, with “administered. […]” for “administered.”

[1] = cited from earlier work
Jeko-1 = assay: Cell line-derived xenograft model of MCL; format: in vivo, mouse; details: Jeko-1 xenograft, nude mice, 25 mg/kg QD PO, 20 days
Method: All three compounds were formulated in a solution of 20% kleptose (hydroxypropyl β-cyclodextrin) in 50 mM citrate and administered QD PO during the treatment periods given for each model. […] Studies in the Jeko-1 mouse MCL model were performed at EMD Serono Research and Development Institute, Billerica, MA, USA. Six-to-eight-week old female nude mice (Crl:NU-Foxn1nu; Charles River Laboratories, Wilmington) were inoculated with Jeko-1 cells (obtained from ATCC) by s.c. injection (10 × 10^6 cells in 0.2 mL phosphate buffered saline with Matrigel). […] Tumor volumes were recorded twice weekly. Mean %∆T/∆C was calculated at the end of treatment as outlined above. Tumor volume was used as the measure of efficacy for statistical analyses of in vivo xenograft studies. Tumor volume data from individual studies were log-transformed and statistically analyzed using repeated measures analysis of covariance (RM-ANCOVA) to determine significant treatment effects, followed by post hoc Tukey’s test for multiple pairwise comparisons (all α = 0.05) using R software. Day 0 data were used only as covariates in the analyses because tumor measurements on that day were recorded before the first treatments were administered.

Granta519 = assay: Cell line-derived xenograft model of MCL; format: in vivo, mouse; details: SCID mice, 25 mg/kg QD PO, 14 days
Method: as §1
(§8) Maver-1, Granta519, and Mino mouse MCL studies were performed at Shanghai ChemPartner Co., Ltd, Shanghai, China. Five-to-six-week old female severe combined immune deficiency (SCID) mice (Vital River Lab Animal Technology Co., Ltd, Beijing, China) were inoculated with Maver-1, Granta519, or Mino cells (all obtained from ATCC) by subcutaneous (s.c.) injection (0.2 mL containing 5 × 10^7 cells/mL in a 1:1 suspension of medium:Matrigel).
(§9) […]. Tumor volumes were recorded three times per week. Tumor growth inhibition was expressed as the mean percentage treatment (T)/control (C) ratio [%∆T/∆C] and was calculated at the end of treatment.
as §7

Maver-1 = assay: Cell line-derived xenograft model of MCL; format: in vivo, mouse; details: Maver-1 xenograft, SCID mice, 25 mg/kg QD PO, 14 days
Method: as §1, §8, §9, §7

Mino = assay: Cell line-derived xenograft model of MCL; details: SCID mice, 25 mg/kg QD PO, 27 days

SMILES	inhibition at 0.008 µM (primary CLL blasts) [%]	inhibition at 0.04 µM (primary CLL blasts) [%]	inhibition at 0.2 µM (primary CLL blasts) [%]	inhibition at 1 µM (primary CLL blasts) [%]	inhibition at 5 µM (primary CLL blasts) [%]	inhibition at 25 µM (primary CLL blasts) [%]	pIC50 (primary CLL blasts)	%ΔT/ΔC (LY2264/ABC)	%ΔT/ΔC (ST949B/ABC) [%]	Tumor response rate (models with P < 0.05 versus vehicle) (DLBCL PDX models) [%]	Exposure ([1]; MCL, acalabrutinib oral 100 mg BID) [ng·h/mL]	Tumor growth vs vehicle (Jeko-1)	Tumor growth vs vehicle (Granta519)	Tumor growth vs vehicle (Maver-1)	Area under the curve (AUC) ([1]; patients with MCL, ibrutinib 560 mg QD) [ng·h/mL]	Tumor growth vs vehicle (Mino)
CC#CC(=O)N1CCC[C@H]1c1nc(-c2ccc(C(=O)Nc3ccccn3)cc2)c2c(N)nccn12 [Acalabrutinib]	34	40	47	56	64	80	~6.70	48^V %	103	24	1111	–	–	–	–	–
C=CC(=O)N1CCC[C@@H](n2nc(-c3ccc(Oc4ccccc4)cc3)c3c(N)ncnc32)C1 [Ibrutinib]	–	–	–	–	–	–	–	74^M %	–	10	–	Neither TL-895 nor ibrutinib had any significant effects on tumor growth	Neither TL-895 nor ibrutinib had any significant effects on tumor growth	Neither TL-895 nor ibrutinib had any significant effects on tumor growth	956	Significant treatment effects were observed for TL-895 and ibrutinib versus vehicle
C=CC(=O)N1CCC(F)(CNc2ncnc(N)c2-c2ccc(Oc3ccccc3)cc2)CC1 [TL-895]	43	50	53	61	72	90	~6.70	37^V,I %	39	24	–	Neither TL-895 nor ibrutinib had any significant effects on tumor growth	Neither TL-895 nor ibrutinib had any significant effects on tumor growth	Neither TL-895 nor ibrutinib had any significant effects on tumor growth	–	significantly inhibited tumor growth
